Patent publication US20120283298A1, “METHODS FOR TREATING MEMORY IMPAIRMENT” (priority 2009, published 2012)
“Also recorded” adds a separate entry of the source.

What was measured:
[1] = system: APPswe transgenic mice; experiment: T-maze avoidance learning acquisition in APPswe transgenic mice after i.c.v. injection; assay type: in vivo, mouse; conditions: 0.2 μg i.c.v.
Excerpt: The APPswe transgenic mouse carries a transgene coding for the 695-amino acid isoform of human Alzheimer A R precursor protein. (K. Hsiao et al., 274 Science 99-102, 1996). These mice express high concentrations of the mutant AR , with significant amyloid plaques, and display memory deficits. At 11-13 months of age they show a 14-fold increase in AR (1-42/43) over those at 2-8 months of age. Elevated AR levels are associated with the development of amyloid deposits in frontal, temporal and entorhinal cortex, hippocampus, presubiculum, and cerebellum, with some mice developing the signature cross pattern of deposits seen inhuman AD. […] Thus APPswe transgenic mice are also a good model for studying APP expression, amyloid plaque formation, neuronal decline, and memory loss associated with AD, and for studying drug candidates for treatment or prevention of AD. APPswe (Tg2576) mice, and non-transgenic siblings as controls, were obtained from Taconic (New York). All other materials and methods were as described for Example 1.
AAPswe transgenic mice were administered 0.2 μg of NNC 26-91001.c.v. after a 2 hour fasting period, followed by an additional hour of fasting after administration. Animals were tested using the T-maze model as described above in Example 1.

[2] = system: SAMP8 mice; experiment: T-maze acquisition and retention after chronic i.p. administration; assay type: in vivo, mouse; conditions: for mean trials to first avoidance versus vehicle (learning): day 21
Procedure: T-Maze testing. The T-maze avoidance apparatus, training and testing procedures were as previously described in Example 1. […] Dosing range for i.p. administration (0.2-200 μg) was extrapolated from previous i.c.v. administration data as described in Example 1 above. Respective doses were given once a day over a period of 28 days. Learning and memory was assessed by the T-maze model. Learning evaluations were conducted at three weeks of treatment (day 21), while memory was assessed after one additional week of treatment (day 28). […] At the end of the evaluations mice were decapitated and the brains flash frozen and stored at −80° C. for subsequent analyses.

[3] = Body weight and behaviour during chronic i.p. dosing; assay type: in vivo, mouse; conditions: SAMP8 mice, i.p. 0.2-200 μg once a day, 28 days
[4] = system: Aβ42; experiment: ELISA analysis of Aβ42 in brain tissue ex vivo; set-up: species or system mouse
Procedure: Brain levels of Aβ42 were evaluated ex vivo, from flash frozen whole brain tissue following respective behavioral analyses, using ultra-centrifugation and solid phase extraction methods (Lanz and Schachter, 2006; Zupa-Fernandez et al., 2007), coupled with Enzyme-linked immunosorbent assay (ELISA) analysis. Half of the brain tissue was dedicated to Western blot examinations with remainder used for Aβ42 evaluation. Brain tissue was homogenized and incubated with 1 mL 50 mM NaCl, 0.4% DEA, pH=10, containing protease inhibitor (Roche, Indianapolis, Ind.). Samples were kept on ice for 20 min, followed by sonication at 30% for 30 sec. Samples were then incubated at room temperature (3 h) followed by centrifugation at 355,000×g for 30 min (4° C.). Supernatant was collected for extraction using Oasis HLB 3 cc columns (Waters, Milford, Mass.). Oasis columns were activated with 2 mL methanol (MeOH), followed by 2 mL diH2O. Brain homogenates were loaded in 1 mL increments. Samples were then washed sequentially with 1 mL volumes of 5% and 30% MeOH, then eluted with 1 mL 2% NH4OH in 90% MeOH. Eluted samples were collected and vacuum-centrifuged at 1400 rpm, 60° C. for 90-120 min. Once samples were dried completely, they were stored at −80° C. until assay. Samples were reconstituted and analyzed in duplicate according to ELISA assay directions (Beta-Mark Aβx-42, Covance, Dedham, Mass.) via luminometer (Lumistar Optima, BMG Labtech, Durham, N.C.). Aβ42 levels were calculated from linear-regression curve in pg/ml and then set to gram weight of brain tissue and normalized to respective controls.
Evaluation of Aβ. Brain levels of Aβ42 were evaluated ex vivo as described above in Example 1.

[5] = system: SAMP8 mice; experiment: Object-recognition task after i.c.v. injection; assay type: in vivo, mouse; conditions: 0.2 μg i.c.v., 48 h after injection
Procedure: Object-recognition is a non-spatial memory recognition task, shown to be effective in SAMP8 mice (Bevins and Besheer, 2006; Fontan-Lozano et al., 2008). In this task, treated and control mice are measured as to the difference in time spent with a familiar (or remembered) object and a novel object. Mice received a single optimized dose (0.2 μg) determined from T-maze assessment, against vehicle control (0 μg). Dosing was performed 24 h prior to the initial training period and the recognition task was evaluated 24 h after training (i.e. 48 h after dosing). Mice were habituated to an empty apparatus (55×40×40 cm) for 5 min a day for 3 days prior to entry of the objects. On the day of training two similar objects were placed in the maze. Mice were placed in the maze and allowed to explore the objects for 5 min. In the 24-h retention test, one of the same objects is placed in the maze, as well as a new object in a new location. The difference in percent time spent exploring the new object over the familiar object was then determined. The criteria for exploration were based strictly on active exploration, where the mouse had both forelimbs within a circle of 1.5 cm around the object, with its head oriented toward it, or when touching it with its vibrissae. At the end of the retention trial, mice were decapitated and the brains flash frozen and stored at −80° C. for subsequent analyses.

[6] = system: SSTR4, APP, and NEP; experiment: Western blot expression of SSTR4, APP and NEP in brain tissue ex vivo; set-up: species or system mouse
Procedure: Protein expression of brain tissues was evaluated ex vivo, from flash frozen whole brain tissue following respective behavioral analyses, by Western blot analyses for SSTR4, APP and NEP. Tissues were homogenized in RIPA buffer containing protease inhibitor (Roche) using a 1:10 ratio (0.5 g=5 ml), transferred into tubes and spun at 10,000×g for 20 min (4° C.). The supernatant was taken and a protein assay was used to determine the amount of protein present. Samples (100 μg) were separated using an electrophoretic field on Biorad (Bio-Rad, Hercules, Calif.) Tris HCl gels (10%) at 175 V for 70 min following heating at 95° C. for 5 min. GelCode Blue Stain (Pierce, Rockford, Ill.) was used to confirm appropriate protein loading. The proteins were then transferred to nitrocellulose membranes with 240 mA at for 45 min (4° C.). The membranes were then blocked using 5% nonfat milk-Tris-buffered saline (20 mM Tris base, 137 mM NaCl, pH 7.6) with 0.1% Tween-20 for 4 h and then incubated overnight at 4° C. with primary antibodies (1:1,000-1:2,000 dilution) in PBS-0.5% BSA. Antibodies shown effective: SSTR4 (Sigma-Aldrich), NEP (Millipore, Billerica, Mass.), and APP (Millipore). The membranes were then washed with 5% nonfat milk-Tris-buffered saline buffer before incubation with the respective secondary antibody at a 1:2,000 dilution (in PBS-0.5% BSA) for 60 min at room temperature. Blots were developed using the enhanced chemiluminescence method (ECL+; Amersham Life Science Products; Springfield, Ill.), and protein bands visualized on X-ray film. Optical densities were measured by densitometer (Biorad) and evaluated against respective controls. After each initial protein expression assessment, membranes were then stripped and re-probed with actin (Sigma-Aldrich).
Protein expression in brain tissues was evaluated ex vivo as described above in Example 1.

[7] = system: SAMP8 mice; experiment: T-maze foot-shock avoidance acquisition after acute i.c.v. injection; assay type: in vivo, mouse
Excerpt: T-Maze Testing. The T-maze avoidance apparatus training and testing procedures have been previously described, and shown as an effective means to assess learning in SAMP8 mice (Flood and Morley, 1993; Farr et al., 2000). […] Octreotide is a primarily SSTR2 agonist, of the SRIF-1 family, serving as an additional control set. Forty-eight hours prior to testing, the mice were anesthetized with 2,2,2-tribromoethanol, placed in a stereotaxic instrument, and the scalp was deflected. A unilateral hole was drilled 0.5 mm anterior and 1.0 mm to the right of the bregma. […] This time frame is consistent with work by others showing somatostatin administration over 24 hrs decreased Aβ1-42 concentrations in the brain (Saito et al., 2005). […] Twenty-four hours following drug administration mice were evaluated using the T-maze test.
The T-maze consisted of a black plastic alley with a start box at one end and two goal boxes at the other. The start box was separated from the alley by a plastic guillotine door, which prevented movement down the alley until training began. An electrifiable stainless steel rod floor ran throughout the maze to deliver scrambled foot-shock. Mice were trained and tested between 07:00 and 15:00 h. Mice were not permitted to explore the maze prior to training. A block of training trials began when a mouse was placed into the start box. The guillotine door was raised and a buzzer sounded simultaneously; 5 s later foot-shock was applied. The goal box entered on the first trial was designated “incorrect” and the foot-shock was continued until the mouse entered the other goal box, which in all subsequent trials was designated as “correct” for the particular mouse. At the end of the acquisition trial, mice were decapitated and the brains flash frozen and stored at −80° C. for subsequent analyses.

[8] = 0.2 μg i.c.v., after object-recognition task

## S=C(NCCCc1c[nH]cn1)NCCCN(Cc1ccc(Cl)c(Cl)c1)c1ccc(Br)cn1 [NNC 26-9100]
[1]
  avoidance learning acquisition: effects in AAPswe transgenic mice similar to those obtained in SAMP8 mice
[2]; i.p. 20 μg daily
  mean trials to first avoidance versus vehicle (learning): significantly lower number of mean trials to first avoidance
[2]; i.p. 20 μg daily, day 28, p<0.01
  mean trials to criterion versus vehicle (memory): significantly lower mean trials to criterion
[2]; i.p. 200 μg daily
  mean trials to first avoidance versus vehicle (learning): significantly lower number of mean trials to first avoidance
[2]; i.p. 200 μg daily, day 28, p<0.05
  mean trials to criterion versus vehicle (memory): significantly lower mean trials to criterion
[3]
  weight loss or abnormal behaviors: no animals in the study exhibiting weight loss or abnormal behaviors
[4]; 0.2 μg i.c.v. + 10 mM phosphoramidon, post-T-maze
  Aβ42 versus NNC 26-9100 alone group: significant increase
[4]; [8]
  Aβ42 versus vehicle: no significant change
[4]; SAMP8 brain, post-T-maze, i.c.v., all doses 0.002-2.0 μg
  decrease in Aβ42 compared to vehicle: ~20%
[4]; chronic i.p. 20 μg daily, 28 days
  Aβ42 versus vehicle: significant decrease
[4]; chronic i.p., any other dose (0.2-200 μg range)
  Aβ42 versus vehicle: no significant changes
[5]
  enhancement in recognition memory (time with novel object) versus vehicle: approximately 2 fold
[6]; 0.2 μg i.c.v., +1 mM or +10 mM phosphoramidon
  SSTR4, APP, or NEP expression, NNC 26-9100 alone, co-administered phosphoramidon, and versus vehicle alone: No changes
[6]; [8]
  expression of SSTR4, APP, or NEP versus vehicle: No significant changes
[6]; SAMP8 brain, i.c.v., 0.002-2.0 μg
  expression of SSTR4, APP, or NEP compared to vehicle: no significant changes
[6]; chronic i.p., any dose (0.2-200 μg daily), 28 days
  expression of SSTR4, APP, or NEP versus vehicle: No significant changes
[7]; 0.2 μg i.c.v. co-administered with 1 mM phosphoramidon, p<0.05
  mean trials to first avoidance versus NNC 26-9100 alone: significant increase in the number of mean trials to first avoidance
[7]; 0.2 μg i.c.v. co-administered with 10 mM phosphoramidon
  trials to first avoidance versus NNC 26-9100+1 mM phosphoramidon: significantly higher number of trials to first avoidance
[7]; 0.2 μg i.c.v. co-administered with 10 mM phosphoramidon, p<0.01
  mean trials to first avoidance versus NNC 26-9100 alone: significant increase in the number of mean trials to first avoidance
[7]; SAMP8 mice, i.c.v., 0.2 μg, T-maze 24 h after injection
  learned avoidance (mean trials to first avoidance) compared to vehicle: significant improvement; also recorded: significantly lower number of mean trials to first avoidance

## C[C@@H](O)[C@@H]1NC(=O)[C@H](CCCCN)NC(=O)[C@@H](Cc2c[nH]c3ccccc23)NC(=O)[C@H](Cc2ccccc2)NC(=O)[C@@H](NC(=O)[C@H](N)Cc2ccccc2)CSSC[C@@H](C(=O)N[C@H](CO)[C@@H](C)O)NC1=O [octreotide, reference compound]
[7]; SAMP8 mice, i.c.v., any dose 0.002-2.0 μg
  learned acquisition compared to vehicle: no significant effects

## S=C(NCCCc1c[nH]cn1)N(CCc1c[nH]c2ccccc12)Cc1cccc(Cl)c1Cl [LIU 686-06A]
[2]; i.p. 0.2 μg daily
  mean trials to first avoidance versus vehicle (learning): significantly lower number of mean trials to first avoidance
[2]; i.p. 20 μg daily, day 21 as printed
  mean trials to criterion versus vehicle: significantly lower number of mean trials to first criterion

## CC(C)C[C@H](NP(=O)(O)O[C@@H]1O[C@@H](C)[C@H](O)[C@@H](O)[C@H]1O)C(=O)N[C@@H](Cc1c[nH]c2ccccc12)C(=O)O [phosphoramidon, reference compound]
[4]; i.c.v., post-T-maze
  Aβ42 within vehicle groups (vehicle alone, +1 mM or +10 mM phosphoramidon): No change
[7]; any dose of phosphoramidon (1 or 10 mM), i.c.v.
  mean trials to first avoidance, vehicle versus vehicle combined with phosphoramidon: No significant change
